Assay results reported in patent US20260115267A1, “METHODS OF USING ANTI-EGF ANTIBODIES TO AUGMENT THE ACTIVITY OF BRAF AND KRAS INHIBITORS” (In3Bio Ltd., priority 2021, published 2026).

Experiments:
[1] = system: HT29 cells; assay: Emergence of resistance to encorafenib in HT29 cells (FIGS. 5-8); type: cell-based
Method: FIGS. 5A-B are graphs that show the emergence of resistance to Encorafenib in the HT29 cell line across an incubation time of 3 weeks and measured by the percentage of cell viability. Cells were treated with 5 μM Encorafenib (FIG. 5A) or 10 μM Encorafenib (FIG. 5B) and incubated with EGF at 0.0 ng/mL, 0.1 ng/mL, Ing/mL, and 10 ng/mL.
FIGS. 6A-B are graphs that show the emergence of resistance to Encorafenib in the HT29 cell line across an incubation time of 15 weeks and measured by the percentage of cell viability.
FIGS. 7A-B are graphs that show the emergence of resistance to Encorafenib in the HT29 cell line across an incubation time of 15 weeks and measured by the percentage of cell viability. […] All tests were conducted at 1.0 ng/ml EGF
FIGS. 8A-B are graphs that show the emergence of resistance to 10 μM Encorafenib in the HT29 cell line with an incubation time of 90 days and measured by the percentage of tumor cell-free wells.
The effect of cells incubated with 5 μM encorafenib and treated with different concentrations of EGF were tested for cell viability during 3 weeks of incubation.
Next, the effects on cells incubated with 0.1 ng/mL EGF were tested.
The effects on cells incubated with 1.0 ng/mL EGF were tested over 15 weeks. The same conditions were repeated as in FIGS. 6A-B with the only difference being the 10-fold increase in EGF (FIG. 7A).
Lastly, the effects of HT29 cells incubated with 0.1 ng/ml and 1.0 ng/mLEGF were tested over a course of 90 days (FIGS. 8A-B).

[2] = system: pEGFR(Tyr1068), pPRAS40(Thr 246) in HT29 cells; assay: Western blot of total and phosphorylated EGFR and PRAS40 in HT29 cells with EGF, 2 hours (FIG. 4); type: cell-based; details: cetuximab 1/75, encorafenib 0.05 μM
Text: C in the first lane stands for control, non-treated cell line sample. The second lane is the same control cell receiving EGF.
C in the first lane stands for control, non-treated cell line sample. Second lane is same control cell receiving EGF.

[3] = clinical data, BRAF V600E mutation-positive advanced melanoma; cited from earlier work
[4] = system: EGFR-mut NSCLC cell lines; details: cited from earlier work
[5] = 10 μM versus 5 μM encorafenib, EGF 0.0-10 ng/mL, 3 weeks

COC(=O)N[C@@H](C)CNc1nccc(-c2cn(C(C)C)nc2-c2cc(Cl)cc(NS(C)(=O)=O)c2F)n1 [Encorafenib]
growth of positive cells (emergence of resistance) ([1]; 0.1 ng/mL EGF, encorafenib 10 μM, 15 weeks): allows the growth of positive cells to a much greater extent | positive growth (emergence of resistance) ([1]; 1.0 ng/mL EGF, 15 weeks): resistance | proliferation / percentage of viable cells (positive wells) [1, 5]: substantially lower | time point at which resistance began [1, 5]: earlier time point | proliferation / percentage of viable cells (positive wells) ([1]; 10 μM versus 5 μM encorafenib, EGF 0.0-10 ng/mL, 3 weeks, listed as encorafenib): lower proliferation of cells than with 5 μM encorafenib, but not by much | inhibition of pPRASO [2]: did not inhibit

CC(C)(C)c1nc(-c2cccc(NS(=O)(=O)c3c(F)cccc3F)c2F)c(-c2ccnc(N)n2)s1 [dabrafenib, Dabrafenib]
time to occurrence of resistance [3]: within six to seven months

C=CC(=O)Nc1cc(Nc2nccc(-c3cn(C)c4ccccc34)n2)c(OC)cc1N(C)CCN(C)C [osimertinib]
antiproliferative effects of the TKI when EGF is present [4]: significantly reduced
